Reference: paper PMC9241943, “LcCCL28-25, Derived from Piscine Chemokine, Exhibits Antimicrobial Activity against Gram-Negative and Gram-Positive Bacteria In Vitro and In Vivo” (Microbiology Spectrum, 2022)
Converted amounts (≈) assume the structure as drawn. Counter-ions that a name gives are not always drawn. Residues, ends and D or L forms follow the SMILES beside them.

How the values were obtained:
[1] = data not shown
P. aeruginosa FRD1 = format: cell-based, Pseudomonas aeruginosa; conditions: FRD1, 2 h
Procedure: (§1) The MIC assays were performed as previously described ([43]). Briefly, peptides were plated in a 2-fold dilution series (50 μL/well) of Mueller-Hinton broth (MHB) in Costar 96-well cell culture plates (Corning, NY, USA). Three repeats were set for each concentration. E. coli ATCC 25922, A. hydrophila ATCC 7966, P. aeruginosa PAO1, P. aeruginosa FRD1, S. aureus ATCC 25923, S. agalactiae ATCC 13813, S. pneumoniae ATCC 49619, methicillin-resistant S. aureus ATCC 43300, and methicillin-resistant S. aureus USA300 were cultured in Luria-Bertani (LB) medium, while K. pneumoniae CMCC46117 was cultured in tryptic soy broth (TSB) medium. Incubation was done at 37°C and 150 × g for 12 h. Bacteria were transferred to fresh MHB at a ratio of 1% (vol/vol) and incubated to reach a logarithmic growth phase. Then, 50 μL of a bacterial suspension at 4 × 10^6 CFU/mL was added to each well. […]

[2] = test system: Pseudomonas aeruginosa PAO1; format: cell-based; conditions: PAO1, 2 h
Procedure: as §1

[3] = test system: Klebsiella pneumoniae CMCC46117; format: cell-based; conditions: CMCC46117, 2 h
Procedure: as §1

[4] = test system: Streptococcus agalactiae ATCC 13813; format: cell-based; conditions: ATCC 13813, 2 h
Procedure: as §1

[5] = test system: Staphylococcus aureus ATCC 25923; format: cell-based; conditions: ATCC 25923, 2 h
Procedure: as §1

[6] = test system: Aeromonas hydrophila ATCC 7966; format: cell-based; conditions: ATCC 7966, 2 h
Procedure: as §1

[7] = test system: Escherichia coli ATCC 25922; format: cell-based; conditions: ATCC 25922, 2 h
Procedure: as §1

[8] = test system: Streptococcus pneumoniae ATCC 49619; format: cell-based; conditions: ATCC 49619, 2 h
Procedure: as §1

[9] = test system: Methicillin-resistant S. aureus ATCC 43300; format: cell-based, Staphylococcus aureus; conditions: ATCC 43300, 2 h
Procedure: as §1

[10] = test system: Methicillin-resistant S. aureus USA300; format: cell-based, Staphylococcus aureus; conditions: USA300, 2 h
Procedure: as §1

E. coli ATCC 25922 = assay: SYTOX green membrane permeability assay; format: cell-based, Escherichia coli; conditions: E. coli ATCC 25922, 5 μM SYTOX green, read every 1 min
Procedure: The SYTOX green staining assay was performed to assess peptide-associated membrane damage ([47], [52]). E. coli ATCC 25922 and S. aureus ATCC 25923 cells in the mid-logarithmic phase were collected, washed thrice, and resuspended (5 × 10^7 CFU/mL) in buffer B (10 mM Tris-HCl, pH 7.4, at 25°C). The bacterial suspensions were mixed with 5 μM SYTOX green and incubated for 15 min at room temperature in the dark. Then, the mixtures were added to black, clear-bottom 96-well plates at a density of 100 μL/well. After peptide addition, SYTOX green uptake was monitored using an EnSpire multimode plate reader (PerkinElmer, Singapore) with an excitation wavelength of 485 nm and an emission wavelength of 520 nm. Each measurement interval was 1 min, totaling 30 to 60 times. Melittin was used as the positive control, while bovine serum albumin (BSA) was the negative control.

[11] = test system: P. aeruginosa FRD1 biofilm; assay: Biofilm inhibition assay (crystal violet); format: cell-based, Pseudomonas aeruginosa; conditions: P. aeruginosa FRD1, 6.25 μg/mL (0.5× MIC), 37°C 24 h, triplicate
Procedure: In vitro static biofilm models have been reported in many studies ([45][–][47]). A Pseudomonas aeruginosa mucoid strain, FRD1, isolated from a cystic fibrosis patient, was used for the biofilm inhibition and eradication assay. The FRD1 strain was shock cultured to logarithmic growth stage at 37°C and 150 × g. After cleaning using PBS and centrifuging thrice, the bacteria were resuspended in MHB medium (with 0.2% glucose) and gradient diluted to an OD600 value of ~0.01.
For the biofilm inhibition assay, 90-μL amounts of bacterial suspensions and 10-μL amounts of increasing concentrations of the peptide were added to a 96-well plate and coincubated at 37°C for 24 h. Then, bacterial biofilms were quantified as follows: (i) planktonic bacteria were removed by washing thrice using PBS, (ii) biofilm bacteria were fixed in 100 μL of 4% paraformaldehyde at room temperature for 15 min and (iii) stained with 100 μL of 0.1% crystal violet for 30 min, (iv) the dye was removed, followed by washing twice using PBS, adding 200 μL of 95% ethanol to each well to dissolve the crystal violet, and finally, (v) absorbance was measured at 590 nm using an EnSpire multimode plate reader (PerkinElmer, Singapore).

[12] = test system: methicillin-resistant S. aureus standard strain USA300; assay: Neutropenic mouse thigh infection model; format: in vivo; conditions: neutropenic BALB/c mice, 300 μg i.p. at 2 h postinfection
Procedure: Female BALB/c mice were used to construct a neutropenic murine thigh infection model as previously published ([48][–][50]). Briefly, mice (n = 9/group) were rendered neutropenic by consecutive intraperitoneal injections of 150 and 100 mg/kg of body weight cyclophosphamide at 4 and 1 day before bacterial injection ([51]). An S. aureus USA300 inoculum (~1.5 × 10^6 CFU/mL) was prepared by diluting logarithmic phase bacteria with fresh MHB. Each mouse was infected by intramuscular injection of 0.1 mL of the inoculum (~1.5 × 10^5 CFU) into the right thigh muscles. At 2 h postinfection, 0.1 mL of lcCCL28-25 peptide (300 μg) or vancomycin hydrochloride (300 μg, 15 mg/kg) was administered by intraperitoneal injection. The control group was injected with an equal volume of PBS. Untreated control mice were sacrificed at the start of treatment to establish the baseline bacterial burden. Mice in the three treatment groups (PBS, vancomycin, and lcCCL28-25) were sacrificed at 48 h postinfection. Their right thighs were aseptically harvested, placed in sterile saline and homogenized using a Bioprep-6 homogenizer (Allsheng, Hangzhou, China). After being serially diluted to 1:10 in sterile saline, 100-μL amounts of tissue suspensions at various concentrations were plated on LB agar to determine bacterial counts after incubation at 37°C for 24 h.

| Compound | solubility in 50% TFE solution [1] | MIC (P. aeruginosa FRD1) [µg/mL] | MIC [2] [µg/mL] | MIC [3] [µg/mL] | MIC [4] [µg/mL] | MIC [5] [µg/mL] | MIC [6] [µg/mL] | MIC [7] [µg/mL] | MIC [8] [µg/mL] | MIC [9] [µg/mL] | MIC [10] [µg/mL] | SYTOX green fluorescence intensity (E. coli ATCC 25922) | reduction of biofilm formation [11] | reduction in average bacterial load in thighs versus control group ([12]; S. aureus USA300 i.m., 48 h postinfection) [log10 CFU/g] | mice that died after 48 h of infection ([12]; n = 9/group, three died in PBS group) |
| --- | --- | --- | --- | --- | --- | --- | --- | --- | --- | --- | --- | --- | --- | --- | --- |
| CSCC[C@H](NC(=O)[C@H](CCCNC(=N)N)NC(=O)[C@H](CCCCN)NC(=O)[C@H](CC(C)C)NC(=O)[C@H](CCCCN)NC(=O)[C@H](CCCNC(=N)N)NC(=O)[C@H](CCCCN)NC(=O)[C@@H](NC(=O)[C@H](CCCCN)NC(=O)[C@@H]1CCCN1C(=O)[C@H](Cc1c[nH]cn1)NC(=O)[C@H](C)N)C(C)C)C(=O)N[C@@H](CCC(N)=O)C(=O)N[C@@H](CCCNC(=N)N)C(=O)N[C@@H](CCCCN)C(=O)N[C@@H](CCCCN)C(=O)N[C@@H](CC(=O)O)C(=O)NCC(=O)N[C@@H](CCCCN)C(=O)N[C@@H](CCC(N)=O)C(=O)N[C@@H](CCCCN)C(=O)N[C@@H](CCCNC(=N)N)C(=O)N[C@@H](Cc1c[nH]cn1)C(=O)O [omCCL28-like-23] (H-AHPKVKRKLKRMQRKKDGKQKRH-OH; N-terminus and C-terminus assumed) | insoluble | 25.00 (≈ 8.67 µM) | 25.00 (≈ 8.67 µM) | >50.00 | 12.50 (≈ 4.34 µM) | 12.50 (≈ 4.34 µM) | >50.00 | 12.50 (≈ 4.34 µM) | 25.00 (≈ 8.67 µM) | 25.00 (≈ 8.67 µM) | 12.50 (≈ 4.34 µM) | increased rapidly within 20 min | – | – | – |
| CC[C@H](C)[C@H](NC(=O)[C@H](CCC(N)=O)NC(=O)[C@H](CCSC)NC(=O)[C@H](C)NC(=O)[C@@H](NC(=O)CNC(=O)[C@H](CC(C)C)NC(=O)[C@@H](NC(=O)[C@H](CCCCN)NC(=O)[C@H](CCCCN)NC(=O)[C@@H](NC(=O)[C@H](CCCNC(=N)N)NC(=O)[C@@H]1CCCN1C(=O)[C@H](CC(=O)O)NC(=O)[C@H](C)N)C(C)C)C(C)C)C(C)C)C(=O)N[C@@H](CCCNC(=N)N)C(=O)N[C@@H](CCCCN)C(=O)N[C@@H](C)C(=O)N[C@@H](CCC(N)=O)C(=O)N[C@@H](CC(C)C)C(=O)N[C@@H](CCSC)C(=O)N[C@@H](CCCNC(=N)N)C(=O)N[C@@H](CCC(=O)O)C(=O)N[C@@H](CCCCN)C(=O)N[C@@H](CC(C)C)C(=O)N[C@@H](CC(N)=O)C(=O)N[C@@H](CO)C(=O)N[C@H](C(=O)N[C@@H](CCSC)C(=O)N[C@@H](CCCNC(=N)N)C(=O)N[C@@H](CCCNC(=N)N)C(=O)O)[C@@H](C)CC [omCK11-31] (H-ADPRVKKVLGVAMQIRKAQLMREKLNSIMRR-OH; N-terminus and C-terminus assumed) | – | 12.50 (≈ 3.44 µM) | 25.00 (≈ 6.87 µM) | 25.00 (≈ 6.87 µM) | 12.50 (≈ 3.44 µM) | 12.50 (≈ 3.44 µM) | >50.00 | 12.50 (≈ 3.44 µM) | 12.50 (≈ 3.44 µM) | 12.50 (≈ 3.44 µM) | 12.50 (≈ 3.44 µM) | fluorescence trends similar to the trends in E. coli cells treated with lcCCL28-25 | ~ 45% | – | – |
| CN[C@H](CC(C)C)C(=O)N[C@H]1C(=O)N[C@@H](CC(N)=O)C(=O)N[C@H]2C(=O)N[C@H]3C(=O)N[C@H](C(=O)N[C@H](C(=O)O)c4cc(O)cc(O)c4-c4cc3ccc4O)[C@H](O)c3ccc(c(Cl)c3)Oc3cc2cc(c3O[C@@H]2O[C@H](CO)[C@@H](O)[C@H](O)[C@H]2O[C@H]2C[C@](C)(N)[C@H](O)[C@H](C)O2)Oc2ccc(cc2Cl)[C@H]1O [vancomycin, vancomycin hydrochloride, reference compound] | – | – | – | – | – | – | – | – | – | – | – | – | – | 1.30 | none |
